Assay results taken from patent publication US20230333087A1, “METHODS FOR MONITORING PATIENT RESPONSE TO TREATMENT OF RETINAL OXIDATIVE DISEASES” (BioJiva LLC, priority 2022, published 2023).

Experiments:
[1] = Ocular D-DHA accretion and elimination (0.5% D-DHA diet 77 days, DHA wash-out 73 days); format: in vivo, C57BL/6J mice
Description: To determine the pharmacokinetics of ocular D-DHA uptake, incorporation and elimination from the neural retina and RPE/choroid/sclera, twelve-week-old C57BL/6J mice were fed a 0.5% D-DHA containing diet (0.5 g D-DHA/100 g food, Table 3) for 77 days followed by an additional 73-day wash-out phase with DHA. At 4 weeks, >55% of the DHA in the retina was D-DHA rising to >60% at 5 weeks (FIG. 6A). At similar time points, D-DHA in the RPE/choroid/sclera was >80%. […] Based on the accretion and elimination data, two-month-old mice were fed with diets containing either D-DHA or natural DHA control for 1 week, 2 weeks, 3 weeks, and 4 weeks before the IVT injection of iron and saline control (FIG. 6B). In order to better approximate typical DHA doses in human prescription omega-3 supplements (e.g. 1,500 mg/day DHA in Lovaza), the D-DHA and DHA experimental mouse diets were adjusted to 0.25% instead of 0.5% for most of the study. On a 0.25% D-DHA diet, retinal D-DHA levels exceeded 50% at five weeks (52.2±1.5% and 55% of total DHA by our GC- and LC- based MS methods, respectively), regardless of whether eyes were injected with iron or control saline (Table 3).
Eleven-week-old C57BL/6J mice were purchased from Jackson Laboratory (Bar Harbor, ME) and housed in 20-25 lux light conditions under 12 h day/night cycle in the Dean McGee Eye Institute Animal Research Facility at the University of Oklahoma Health Sciences Center, Oklahoma City, OK. One week after acclimatization to the vivarium with ad libitum access to laboratory rodent chow and water the animals were assigned to experimental groups. To determine ocular D-DHA accretion, the mice were switched from the laboratory rodent diet to the experimental D-DHA supplemented diet containing 0.5% D-DHA plus 6.5% high oleic soybean oil (w/w) in AIN93G^51 (Research Diet, Inc. New Brunswick, NJ). The diets were vacuum packaged and stored at - 20° C. Food was replaced three times a week with fresh food ad libitum that is stored in 4° C. after it is taken from - 20° C. Based on previous estimated retina accretion kinetics, retina, optic nerve and eye cups containing sclera, retinal pigment epithelium-choroid (RPE-choroid) were dissected from 6 mice (3 females and 3 males) at different time points during eleven weeks of D-DHA feeding. The tissues were snap frozen in liquid nitrogen, and stored in -80° C. until fatty acid analyses. After eleven weeks (77 days) on D-DHA diet, the animals were switched to the washout diet containing 0.5% DHA plus 6.5% high oleic soybean oil (w/w) in AIN93G and maintained on this diet until euthanasia at three different time points up to 73 days, when tissues were harvested for fatty acid analysis. All animal procedures were approved by the University of Oklahoma Health Sciences Center Institutional Animal Care and Use Committee.
Three types of mass spectrometric analysis were performed to confirm repeatability of results. In the first, lipids were extracted from retinas by a modified Folch method (CHCl3/CH3OH, 2:1). derivatized to fatty acid methyl esters (FAME), and analyzed by high resolution capillary gas chromatography and specialized chemical ionization tandem mass spectrometry. Baseline resolved DHA and D-DHA total ion signal were integrated, and the proportions of D-DHA/total DHA were calculated. […] Lipids were extracted and saponified, and analyzed by ESI-LC/MS on a 4000 QTrap (Sciex) operating in enhanced negative mode over an m/z range of 320 - 345 and a scan rate of 250 /sec. […]

retinal structure = assay: Toluidine blue staining of plastic sections, retinal histology and thickness; format: in vivo, C57BL/6J mice
Procedure: Electroretinography was conducted on mice fed with D-DHA or natural DHA for 4 weeks to evaluate retinal function. […] Thus, using this measure, incorporation of D-DHA had no impact on retinal function (FIG. 7A). […] Toluidine blue staining was performed on plastic sections to examine retinal histology.
Plastic sections (3 µm) were cut in the sagittal plane. The third eyelid was used for the orientation when embedding eye cups. Toluidine blue staining on plastic sections was used to evaluate retinal morphology.

## [2H]C([2H])(/C=C\CC)/C=C\C([2H])([2H])/C=C\C([2H])([2H])/C=C\C([2H])([2H])/C=C\C([2H])([2H])/C=C\CCC(=O)OCC [D-DHA, 6,6,9,9,12,12,15,15,18,18-D10-(4Z,7Z,10Z,13Z,16Z, 19Z)-docosa 4,7,10,13,16, 19-hexaenoic acid ethyl ester]
[1]; 0.5% D-DHA diet, 4 weeks
  % of the DHA in the retina that was D-DHA: > 55%
[1]; 0.5% D-DHA diet, 5 weeks
  % of the DHA in the retina that was D-DHA: > 60%
[1]; 0.5% D-DHA diet, similar time points (4-5 weeks)
  D-DHA in the RPE/choroid/sclera: > 80%
[1]; DHA wash-out diet, compared with retina
  washout in the RPE/choroid/sclera: more rapid than retina
[1]; neural retina and RPE/choroid/sclera
  uptake and elimination kinetics: classic first order kinetics
Retinal structure; 1 week after iron injection
  retinal structure (toluidine blue histology): complete protection
Retinal structure; IVT iron injected eyes, 1 week after injection
  total retina thickness and outer retina thickness: significantly protected and not different from saline injected eyes
